# Data published in patent publication US9346809B2 (LEO PHARMA A/S, priority 2009, dated 2016).
# Like-named read-outs stand apart in the source and are kept apart here.
# Columns and labels:
# Format in all cases: biochemical
# [1] = target: T1, JAK1 (aa 850-1154, catalytic domain, GST-tag) (Homo sapiens, UniProt P23458); test: JAK kinase assay (HTRF, phosphorylation of TK substrate-biotin), JAK1; conditions: ATP at Km (7 μM)
# T1 construct: JAK1 (aa 850-1154) and TYK2 (aa 871-1187) are expressed with an N-terminally fused GST-tag; GST (N); purchased Carna Biosciences, Inc; host or cells: baculovirus expression system
# T1 sequence (P23458 850-1154): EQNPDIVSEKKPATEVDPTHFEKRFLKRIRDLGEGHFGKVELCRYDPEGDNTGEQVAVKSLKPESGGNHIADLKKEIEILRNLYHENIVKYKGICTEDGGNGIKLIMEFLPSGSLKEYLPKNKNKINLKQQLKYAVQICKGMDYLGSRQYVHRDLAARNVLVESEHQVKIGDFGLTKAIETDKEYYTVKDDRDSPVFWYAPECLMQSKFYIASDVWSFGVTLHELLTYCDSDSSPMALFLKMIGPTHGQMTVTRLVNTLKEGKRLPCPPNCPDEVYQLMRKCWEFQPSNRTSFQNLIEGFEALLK
# Summary of the method: (§1)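 Catalytic-domain kinases phosphorylated 1 μM biotin-TK substrate at ATP Km (JAK1 7 μM, JAK2 4 μM, JAK3 2 μM, TYK2 13 μM) in Hepes pH 7.0 with DTT and MgCl2, for 20-30 min at RT; JAK1 and TYK2 also had 50 nM SEB. Detection was by HTRF (streptavidin-XL665/Cryptate antibody) overnight, giving EC50.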
# [2] = target: T2, JAK2 (catalytic domain, His-tag) (Homo sapiens, UniProt O60674); test: JAK kinase assay (HTRF, phosphorylation of TK substrate-biotin), JAK2; conditions: ATP at Km (4 μM)
# T2 construct: All four purified enzymes contain only the catalytic domain; His (N); purchased Carna Biosciences, Inc; host or cells: baculovirus expression system
# T2 sequence (O60674 849-1124 limits assumed): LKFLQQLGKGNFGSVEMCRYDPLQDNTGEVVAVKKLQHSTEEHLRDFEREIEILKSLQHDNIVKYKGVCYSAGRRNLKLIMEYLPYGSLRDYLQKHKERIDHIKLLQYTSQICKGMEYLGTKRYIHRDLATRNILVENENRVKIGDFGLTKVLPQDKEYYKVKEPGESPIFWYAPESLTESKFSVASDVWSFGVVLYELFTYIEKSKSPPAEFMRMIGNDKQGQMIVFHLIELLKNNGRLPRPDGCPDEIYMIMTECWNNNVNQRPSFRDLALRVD
# Summary of the method: as §1
# [3] = target: T3, JAK3 (catalytic domain, His-tag) (Homo sapiens, UniProt P52333); test: JAK kinase assay (HTRF, phosphorylation of TK substrate-biotin), JAK3; conditions: ATP at Km (2 μM)
# T3 construct: All four purified enzymes contain only the catalytic domain; His (N); purchased Carna Biosciences, Inc; host or cells: baculovirus expression system
# T3 sequence (P52333 822-1111 limits assumed): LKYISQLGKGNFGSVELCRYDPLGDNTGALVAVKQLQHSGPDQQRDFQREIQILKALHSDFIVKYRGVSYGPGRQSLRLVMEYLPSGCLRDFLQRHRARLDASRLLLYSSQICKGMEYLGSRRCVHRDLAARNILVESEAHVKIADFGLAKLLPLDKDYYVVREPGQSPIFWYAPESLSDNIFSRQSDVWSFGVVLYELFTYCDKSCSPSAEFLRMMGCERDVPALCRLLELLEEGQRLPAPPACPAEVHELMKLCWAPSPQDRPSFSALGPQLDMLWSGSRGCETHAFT
# Summary of the method: as §1
# [4] = target: T4, TYK2 (aa 871-1187, catalytic domain, GST-tag) (Homo sapiens, UniProt P29597); test: JAK kinase assay (HTRF, phosphorylation of TK substrate-biotin), TYK2; conditions: ATP at Km (13 μM)
# T4 construct: JAK1 (aa 850-1154) and TYK2 (aa 871-1187) are expressed with an N-terminally fused GST-tag; GST (N); purchased Carna Biosciences, Inc; host or cells: baculovirus expression system
# T4 sequence (P29597 871-1187): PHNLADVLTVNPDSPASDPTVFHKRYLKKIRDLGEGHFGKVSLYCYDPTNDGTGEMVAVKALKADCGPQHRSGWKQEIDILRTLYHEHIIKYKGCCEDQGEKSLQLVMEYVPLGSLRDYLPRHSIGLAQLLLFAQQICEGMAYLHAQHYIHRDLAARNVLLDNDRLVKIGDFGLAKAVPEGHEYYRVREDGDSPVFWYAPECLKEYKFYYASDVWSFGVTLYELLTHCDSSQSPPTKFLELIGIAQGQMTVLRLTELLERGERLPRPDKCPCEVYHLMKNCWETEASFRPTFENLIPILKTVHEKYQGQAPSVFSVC
# Summary of the method: as §1
# [5] = HTRF assay, read-out: JAK1 kinase inhibitory activity (EC50 indicator)
# [6] = HTRF assay, read-out: JAK2 kinase inhibitory activity (EC50 indicator)
# [7] = HTRF assay, read-out: JAK3 kinase inhibitory activity (EC50 indicator)
# [8] = HTRF assay, read-out: TYK2 kinase inhibitory activity (EC50 indicator)
# [9] = read-out: JAK1 kinase inhibitory activity (EC50 indicator)
# [10] = read-out: JAK2 kinase inhibitory activity (EC50 indicator)
# [11] = read-out: JAK3 kinase inhibitory activity (EC50 indicator)
# [12] = read-out: TYK2 kinase inhibitory activity (EC50 indicator)
SMILES,"EC50 [1, 5]","EC50 [2, 6]","EC50 [3, 7]","EC50 [4, 8]",other results
"NC(=O)c1ccc(C(=O)N2[C@@H]3CC[C@@H]2CN(c2ncnc4[nH]ccc24)C3)cc1 [Example 358, 4-[3-(7H-Pyrrolo[2,3-d]pyrimidin-4-yl)-3,8-diaza-bicyclo[3.2.1]octane-8-carbonyl]-benzamide]",< 100 nM,< 100 nM,100 to 500 nM,100 to 500 nM,–
"N#Cc1ccccc1CC(=O)N1CCN(c2ccnc3[nH]ccc23)CC12CC2 [Example 237, 2-{2-Oxo-2-[7-(1H-pyrrolo[2,3-b]pyridin-4-yl)-4,7-diaza-spiro[2.5]oct-4-yl]-ethyl}-benzonitrile]",> 500 nM,100 to 500 nM,100 to 500 nM,> 500 nM,–
"N#Cc1ccc(C(=O)C(=O)N2CCN(c3ncnc4[nH]ccc34)CC23CC3)cc1 [Example 381, 4-{2-Oxo-2-[7-(7H-pyrrolo[2,3-d]pyrimidin-4-yl)-4,7-diaza-spiro[2.5]oct-4-yl]-acetyl}-benzonitrile]",< 100 nM,< 100 nM,100 to 500 nM,100 to 500 nM,–
"NS(=O)(=O)c1ccc(C(=O)N2CCN(c3ncnc4[nH]ccc34)CC23CC3)s1 [Example 405, 5-[7-(7H-Pyrrolo[2,3-d]pyrimidin-4-yl)-4,7-diaza-spiro[2.5]octane-4-carbonyl]-thiophene-2-sulfonic acid amide]",< 100 nM,< 100 nM,< 100 nM,< 100 nM,–
"N#Cc1ccc(C(=O)N2CCN(c3ncnc4[nH]cc(Cl)c34)CC23CC3)cc1 [Example 315, 4-[7-(5-Chloro-7H-pyrrolo[2,3-d]pyrimidin-4-yl)-4,7-diaza-spiro[2.5]octane-4-carbonyl]-benzonitrile]",> 500 nM,> 500 nM,> 500 nM,> 500 nM,–
"COc1cnc2[nH]ccc2c1N1CCN(C(=O)Cc2ccc(C#N)cc2)C2(CC2)C1 [Example 295, 4-{2-[7-(5-Methoxy-1H-pyrrolo[2,3-b]pyridin-4-yl)-4,7-diaza-spiro[2.5]oct-4-yl]-2-oxo-ethyl}-benzonitrile]",100 to 500 nM,< 100 nM,< 100 nM,> 500 nM,–
"COc1cnc2[nH]ccc2c1N1CCN(C(=O)c2cc3ccccc3[nH]2)C2(CC2)C1 [Example 288, (1H-Indol-2-yl)-[7-(5-methoxy-1H-pyrrolo[2,3-b]pyridin-4-yl)-4,7-diaza-spiro[2.5]oct-4-yl]-methanone]",> 500 nM,> 500 nM,100 to 500 nM,> 500 nM,–
"CCS(=O)(=O)Nc1ccc(C(=O)N2CCN(c3ncnc4[nH]ccc34)CC23CC3)cc1 [Example 210, Ethanesulfonic acid {4-[7-(7H-pyrrolo[2,3-d]pyrimidin-4-yl)-4,7-diaza-spiro[2.5]octane-4-carbonyl]-phenyl}-amide]",< 100 nM,< 100 nM,< 100 nM,< 100 nM,–
"Cc1ccc(C(=O)N2CCN(c3ncnc4[nH]ccc34)CC23CC3)s1 [Example 91, (5-Methyl-thiophen-2-yl)-[7-(7H-pyrrolo[2,3-d]pyrimidin-4-yl)-4,7-diaza-spiro[2.5]oct-4-yl]-methanone]",–,–,–,–,"EC50 [1, 9]: < 100 nM; EC50 [2, 10]: < 100 nM; EC50 [3, 11]: < 100 nM; EC50 [4, 12]: < 100 nM"
"N#CCCC(=O)N1CCN(c2ncnc3[nH]cc(Cl)c23)CC12CC2 [Example 325, 4-[7-(5-Chloro-7H-pyrrolo[2,3-d]pyrimidin-4-yl)-4,7-diaza-spiro[2.5]oct-4-yl]-4-oxo-butyronitrile]",> 500 nM,100 to 500 nM,100 to 500 nM,> 500 nM,–
"N#Cc1ccc(C(=O)N2C[C@@H]3C[C@H]2CN3c2ncnc3[nH]ccc23)cc1 [Example 258, 4-[5-(7H-Pyrrolo[2,3-d]pyrimidin-4-yl)-2,5-diaza-bicyclo[2.2.1]heptane-2-carbonyl]-benzonitrile]",> 500 nM,> 500 nM,> 500 nM,> 500 nM,–
"O=C([C@@H]1CCCc2ccccc21)N1C2CCC1CN(c1ncnc3[nH]ccc13)C2 [Example 137, [3-(7H-Pyrrolo[2,3-d]pyrimidin-4-yl)-3,8-diaza-bicyclo[3.2.1]oct-8-yl]-(1,2,3,4-tetrahydro-naphthalen-1-yl)-methanone]",–,–,–,–,"EC50 [1, 9]: > 500 nM; EC50 [2, 10]: 100 to 500 nM; EC50 [3, 11]: > 500 nM; EC50 [4, 12]: > 500 nM"
"O=C(c1cccnc1)N1CCN(c2ccnc3[nH]ccc23)CC12CC2 [Example 223, Pyridin-3-yl-[7-(1H-pyrrolo[2,3-b]pyridin-4-yl)-4,7-diaza-spiro[2.5]oct-4-yl]-methanone]",100 to 500 nM,100 to 500 nM,> 500 nM,> 500 nM,–
"N#CCOc1ccc(CC(=O)N2CCN(c3ncnc4[nH]ccc34)CC23CC3)cc1 [Example 69, (4-{2-Oxo-2-[7-(7H-pyrrolo[2,3-d]pyrimidin-4-yl)-4,7-diaza-spiro[2.5]oct-4-yl]-ethyl}-phenoxy)-acetonitrile]",–,–,–,–,"EC50 [1, 9]: < 100 nM; EC50 [2, 10]: < 100 nM; EC50 [3, 11]: < 100 nM; EC50 [4, 12]: > 500 nM"
"Cc1c[nH]c2ncnc(N3CCN(C(=O)CCC#N)C4(CC4)C3)c12 [Example 335, 4-[7-(5-Methyl-7H-pyrrolo[2,3-d]pyrimidin-4-yl)-4,7-diaza-spiro[2.5]oct-4-yl]-4-oxo-butyronitrile]",> 500 nM,> 500 nM,> 500 nM,> 500 nM,–
"NS(=O)(=O)c1ccc(CCC(=O)N2CCN(c3ncnc4[nH]ccc34)CC23CC3)cc1 [Example 383, 4-{3-Oxo-3-[7-(7H-pyrrolo[2,3-d]pyrimidin-4-yl)-4,7-diaza-spiro[2.5]oct-4-yl]-propyl}-benzenesulfonamide]",< 100 nM,< 100 nM,< 100 nM,< 100 nM,–
"O=C(c1cnccn1)N1CCN(c2ncnc3[nH]cc(Cl)c23)CC12CC2 [Example 314, [7-(5-Chloro-7H-pyrrolo[2,3-d]pyrimidin-4-yl)-4,7-diaza-spiro[2.5]oct-4-yl]-pyrazin-2-yl-methanone]",> 500 nM,100 to 500 nM,> 500 nM,> 500 nM,–
"CCCS(=O)(=O)N1[C@@H]2CC[C@H]1CN(c1ncnc3[nH]ccc13)C2 [Example 51, 4-[8-(Propane-1-sulfonyl)-3,8-diaza-bicyclo[3.2.1]oct-3-yl]-7H-pyrrolo[2,3-d]pyrimidine]",–,–,–,–,"EC50 [1, 9]: 100 to 500 nM; EC50 [2, 10]: 100 to 500 nM; EC50 [3, 11]: > 500 nM; EC50 [4, 12]: > 500 nM"
"Cc1c(C(=O)N2C3CCC2CN(c2ncnc4[nH]ccc24)C3)[nH]c2ccc(F)cc12 [Example 201, (5-Fluoro-3-methyl-1H-indol-2-yl)-[3-(7H-pyrrolo[2,3-d]pyrimidin-4-yl)-3,8-diaza-bicyclo[3.2.1]oct-8-yl]-methanone]",–,–,–,–,"EC50 [1, 9]: < 100 nM; EC50 [2, 10]: 100 to 500 nM; EC50 [3, 11]: 100 to 500 nM; EC50 [4, 12]: > 500 nM"
"O=C(c1ccccc1)N1C[C@@H]2C[C@H]1CN2c1ncnc2[nH]ccc12 (racemic) [Example 253, Phenyl-[5-(7H-pyrrolo[2,3-d]pyrimidin-4-yl)-2,5-diaza-bicyclo[2.2.1]hept-2-yl]-methanone]",> 500 nM,> 500 nM,> 500 nM,> 500 nM,–
"O=C(c1ccccc1)N1CCN(c2ccnc3[nH]ccc23)CC12CC2 [Example 221, Phenyl-[7-(1H-pyrrolo[2,3-b]pyridin-4-yl)-4,7-diaza-spiro[2.5]oct-4-yl]-methanone]",< 100 nM,< 100 nM,100 to 500 nM,> 500 nM,–
"Nc1nc(N2CCN(C(=O)c3cnc4ccccc4n3)C3(CC3)C2)c2cc[nH]c2n1 [Example 305, [7-(2-Amino-7H-pyrrolo[2,3-d]pyrimidin-4-yl)-4,7-diaza-spiro[2.5]oct-4-yl]-quinoxalin-2-yl-methanone]",< 100 nM,< 100 nM,100 to 500 nM,100 to 500 nM,–
"O=C(COc1ccccc1)N1CCN(c2ncnc3[nH]ccc23)CC12CC2 [Example 442, 2-Phenoxy-1-[7-(7H-pyrrolo[2,3-d]pyrimidin-4-yl)-4,7-diaza-spiro[2.5]oct-4-yl]-ethanone]",–,–,–,–,"EC50 ([1]; HTRF assay, read-out: JAK1 kinase inhibitory activity (EC50)): < 100 nM; EC50 ([2]; HTRF assay, read-out: JAK2 kinase inhibitory activity (EC50)): < 100 nM; EC50 ([3]; HTRF assay, read-out: JAK3 kinase inhibitory activity (EC50)): < 100 nM; EC50 ([4]; HTRF assay, read-out: TYK2 kinase inhibitory activity (EC50)): 100 to 500 nM"
